“Also recorded” adds a separate entry of the source. Where two headings read alike, the source gives them in different places.
How the values were obtained:
[1] = target: MDR1 (P-gp) (Homo sapiens, UniProt P08183); assay: MDR1-MDCK efflux assay (net flux ratio); settings: 37° C., three hours
[2] = Parallel Artificial Membrane Permeability Assay (PAMPA); settings: about 100 μM, five hours, 25° C.
[3] = target: human AChE (Homo sapiens, UniProt P22303); format: biochemical
[4] = target: hERG channel (Homo sapiens, UniProt Q12809); assay: hERG channel patch clamp assay
[5] = target: CYP2C19 (Homo sapiens, UniProt P33261); assay: Cytochrome P450 inhibition with fluorescent probe substrate
[6] = in vivo; settings: male, guinea pig
[7] = in vivo; settings: male, guinea pig, iv
[8] = Human plasma stability assay
[9] = male, guinea pig, in vivo
[10] = target: CYP3A4 (Homo sapiens, UniProt P08684); assay: biochemical
[11] = Microsomal stability assay; settings: microsomes
[12] = guinea pig, in vivo; for percentage of the administered dose in the brain / LogBB / brain concentration / plasma concentration: male; for LogBB / brain concentration / plasma concentration: iv

Sequence of MDR1 (P-gp) (P08183 whole entry): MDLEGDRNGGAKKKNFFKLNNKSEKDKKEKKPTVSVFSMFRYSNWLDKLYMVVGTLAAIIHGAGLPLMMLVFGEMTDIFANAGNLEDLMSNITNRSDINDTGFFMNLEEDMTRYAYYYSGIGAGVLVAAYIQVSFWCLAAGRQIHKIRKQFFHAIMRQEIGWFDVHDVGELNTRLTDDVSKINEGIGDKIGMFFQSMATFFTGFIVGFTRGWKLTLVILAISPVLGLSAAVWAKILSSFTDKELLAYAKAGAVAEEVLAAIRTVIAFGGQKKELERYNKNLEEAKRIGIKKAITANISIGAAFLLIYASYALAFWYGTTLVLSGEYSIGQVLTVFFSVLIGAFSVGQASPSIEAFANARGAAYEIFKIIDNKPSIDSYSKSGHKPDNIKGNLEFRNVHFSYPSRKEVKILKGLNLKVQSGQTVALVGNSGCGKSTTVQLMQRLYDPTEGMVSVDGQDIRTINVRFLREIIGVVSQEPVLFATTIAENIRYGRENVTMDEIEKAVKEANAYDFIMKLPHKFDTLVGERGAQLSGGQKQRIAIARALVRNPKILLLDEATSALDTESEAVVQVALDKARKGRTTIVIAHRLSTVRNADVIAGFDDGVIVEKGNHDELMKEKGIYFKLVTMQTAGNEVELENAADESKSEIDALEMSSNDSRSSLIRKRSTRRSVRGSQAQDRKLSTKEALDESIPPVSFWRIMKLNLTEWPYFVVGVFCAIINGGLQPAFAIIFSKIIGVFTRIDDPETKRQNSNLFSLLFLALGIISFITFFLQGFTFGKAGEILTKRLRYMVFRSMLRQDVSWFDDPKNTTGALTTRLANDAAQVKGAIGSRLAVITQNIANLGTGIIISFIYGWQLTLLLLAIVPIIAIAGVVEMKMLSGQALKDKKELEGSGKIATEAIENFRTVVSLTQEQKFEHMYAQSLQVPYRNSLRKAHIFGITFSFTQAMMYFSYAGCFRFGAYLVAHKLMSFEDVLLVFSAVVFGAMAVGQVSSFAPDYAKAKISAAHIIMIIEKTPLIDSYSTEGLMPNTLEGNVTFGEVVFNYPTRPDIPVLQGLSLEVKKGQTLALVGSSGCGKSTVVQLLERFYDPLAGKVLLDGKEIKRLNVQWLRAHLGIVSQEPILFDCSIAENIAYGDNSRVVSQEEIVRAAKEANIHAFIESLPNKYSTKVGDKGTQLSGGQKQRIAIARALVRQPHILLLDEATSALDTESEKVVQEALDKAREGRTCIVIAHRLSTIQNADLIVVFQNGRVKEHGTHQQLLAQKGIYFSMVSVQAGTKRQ
Sequence of human AChE (P22303-2 with tags, fused parts or gaps limits assumed): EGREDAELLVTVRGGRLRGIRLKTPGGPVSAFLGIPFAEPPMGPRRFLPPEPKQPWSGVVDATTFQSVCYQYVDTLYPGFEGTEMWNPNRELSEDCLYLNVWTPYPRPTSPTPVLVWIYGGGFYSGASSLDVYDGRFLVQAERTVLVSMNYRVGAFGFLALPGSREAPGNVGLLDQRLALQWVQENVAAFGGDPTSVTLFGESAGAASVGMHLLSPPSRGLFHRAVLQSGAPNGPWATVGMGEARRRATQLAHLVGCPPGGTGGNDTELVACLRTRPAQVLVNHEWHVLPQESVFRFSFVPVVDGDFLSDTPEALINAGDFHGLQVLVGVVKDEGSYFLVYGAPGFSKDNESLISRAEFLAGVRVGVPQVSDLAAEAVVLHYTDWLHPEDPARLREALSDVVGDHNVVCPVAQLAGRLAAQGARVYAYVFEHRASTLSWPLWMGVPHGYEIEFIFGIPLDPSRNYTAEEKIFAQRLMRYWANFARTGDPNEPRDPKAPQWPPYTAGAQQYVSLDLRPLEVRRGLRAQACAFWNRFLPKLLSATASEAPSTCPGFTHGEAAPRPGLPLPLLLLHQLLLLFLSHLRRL
Sequence of hERG channel (Q12809 whole entry): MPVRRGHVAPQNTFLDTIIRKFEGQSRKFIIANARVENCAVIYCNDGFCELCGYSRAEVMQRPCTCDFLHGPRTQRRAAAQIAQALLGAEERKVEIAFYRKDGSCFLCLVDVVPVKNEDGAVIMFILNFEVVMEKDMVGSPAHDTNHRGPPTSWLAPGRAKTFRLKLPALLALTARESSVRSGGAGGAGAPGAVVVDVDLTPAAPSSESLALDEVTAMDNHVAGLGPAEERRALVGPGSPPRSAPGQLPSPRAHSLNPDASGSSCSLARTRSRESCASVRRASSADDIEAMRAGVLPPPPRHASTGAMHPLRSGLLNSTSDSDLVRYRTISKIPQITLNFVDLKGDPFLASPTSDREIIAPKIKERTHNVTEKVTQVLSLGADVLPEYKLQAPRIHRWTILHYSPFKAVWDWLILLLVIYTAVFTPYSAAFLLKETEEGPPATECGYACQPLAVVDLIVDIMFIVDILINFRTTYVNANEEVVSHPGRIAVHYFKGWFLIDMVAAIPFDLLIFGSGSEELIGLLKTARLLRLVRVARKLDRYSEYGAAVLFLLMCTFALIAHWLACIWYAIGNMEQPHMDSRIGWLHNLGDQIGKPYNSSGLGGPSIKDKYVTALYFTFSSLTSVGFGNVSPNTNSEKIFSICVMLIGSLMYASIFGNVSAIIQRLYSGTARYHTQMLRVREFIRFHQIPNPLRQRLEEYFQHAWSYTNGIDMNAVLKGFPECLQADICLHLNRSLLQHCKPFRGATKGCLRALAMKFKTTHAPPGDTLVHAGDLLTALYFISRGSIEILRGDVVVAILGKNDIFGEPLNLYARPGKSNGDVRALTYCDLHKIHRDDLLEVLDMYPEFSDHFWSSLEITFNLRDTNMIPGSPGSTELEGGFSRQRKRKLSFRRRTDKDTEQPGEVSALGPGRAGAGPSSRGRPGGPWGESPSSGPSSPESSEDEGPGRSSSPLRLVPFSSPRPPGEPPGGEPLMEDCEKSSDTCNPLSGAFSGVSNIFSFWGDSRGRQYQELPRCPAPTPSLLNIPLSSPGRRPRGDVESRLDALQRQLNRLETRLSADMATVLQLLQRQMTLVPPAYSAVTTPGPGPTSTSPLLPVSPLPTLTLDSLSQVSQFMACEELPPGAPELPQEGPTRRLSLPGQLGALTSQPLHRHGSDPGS
Sequence of CYP2C19 (P33261 whole entry): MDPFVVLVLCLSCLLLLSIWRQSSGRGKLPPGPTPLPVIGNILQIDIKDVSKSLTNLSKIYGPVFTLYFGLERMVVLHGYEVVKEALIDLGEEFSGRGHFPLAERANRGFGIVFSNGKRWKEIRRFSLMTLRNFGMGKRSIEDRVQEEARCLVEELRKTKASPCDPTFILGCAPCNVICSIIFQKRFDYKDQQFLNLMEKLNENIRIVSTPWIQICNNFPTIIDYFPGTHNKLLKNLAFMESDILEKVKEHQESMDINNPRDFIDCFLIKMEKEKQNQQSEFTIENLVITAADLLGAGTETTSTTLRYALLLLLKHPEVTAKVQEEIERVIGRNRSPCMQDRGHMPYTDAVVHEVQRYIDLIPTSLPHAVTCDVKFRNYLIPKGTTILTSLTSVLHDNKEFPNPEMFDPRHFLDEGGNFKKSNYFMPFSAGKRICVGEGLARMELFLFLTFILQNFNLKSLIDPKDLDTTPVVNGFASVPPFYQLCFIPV
Sequence of CYP3A4 (P08684 whole entry): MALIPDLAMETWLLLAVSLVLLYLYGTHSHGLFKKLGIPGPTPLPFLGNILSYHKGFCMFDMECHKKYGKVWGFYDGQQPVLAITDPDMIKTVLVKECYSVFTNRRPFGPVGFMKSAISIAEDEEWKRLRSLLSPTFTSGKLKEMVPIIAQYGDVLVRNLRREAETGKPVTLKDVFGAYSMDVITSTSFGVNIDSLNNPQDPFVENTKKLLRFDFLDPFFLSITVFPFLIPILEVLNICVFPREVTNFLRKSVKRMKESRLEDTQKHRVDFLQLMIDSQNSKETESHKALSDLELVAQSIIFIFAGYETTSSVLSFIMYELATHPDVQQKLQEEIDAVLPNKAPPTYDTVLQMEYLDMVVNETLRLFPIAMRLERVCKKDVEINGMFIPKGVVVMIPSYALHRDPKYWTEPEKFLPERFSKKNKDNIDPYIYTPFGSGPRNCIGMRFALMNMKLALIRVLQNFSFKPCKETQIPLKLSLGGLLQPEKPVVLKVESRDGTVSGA

## C[C@@H](CN1CCCc2ccccc2C1)NC(=O)/C=N/O [LLNL-02]
[1]
  MDR1 efflux substrate status from net flux ratio: may be a moderate efflux substrate; also recorded: moderate efflux substate
[2]
  PAMPA permeability: high permeability through the BBB; also recorded: high permeability comparable to that of the highly permeable positive control compound, diazepam; also recorded: elevated permeability relative to other selected compounds; also recorded: superior permeation relative to LLNL-03
[3]
  fraction of AChE reactivated at 30 minutes, methylated versus des-methyl analog: significantly lower reactivation relative to the des-methyl counterpart
  reactivation of adducted AChE relative to the 2-PAM standard of care: approximately 40%
[4]
  concentration not toxic to the hERG channel: > 10 µM
[5]
  IC50: > 10 µM
[6]
  Cmax: 1420 to 10000 ng/g
[7]; 1 mg/kg, T½ dist.
  half-life: 23.4 min
[7]; 5 mg/kg, T½ dist.
  half-life: 24 min
[7]; 10 mg/kg
  AUC(0-inf): 73400 ng·h/mL
[7]; 10 mg/kg, AUC0-t
  AUC0-t: 28400 ng·h/mL
[7]; 10 mg/kg, T½ dist.
  half-life: 15 min
[7]; 10 mg/kg, T½ elim.
  half-life: 606 min
[7]; 10 mg/kg, Vd (area)
  Vd: 6.32 L/kg
[7]; 20 mg/kg, T½ dist.
  half-life: 23.4 min
[7]; 20 mg/kg, apparent volume of distribution (Vd)
  Vd: 3.75 to 6.32 L/kg
[7]; 20 mg/kg, mean apparent distribution half-life (t1/2α)
  half-life: 15 to 24 min
[7]; 20 mg/kg, terminal half-life (t1/2 β)
  half-life: 606 to 1130 min
[7]; 20 mg/kg, total clearance from plasma (CL)
  clearance: 2.27 to 5.19 mL/min/kg
[8]; human plasma, 1 hour at 37° C.
  human plasma stability (percent remaining after 1 hour): over 90%
[8]; one hour
  degradation in human plasma: < 10%
[9]
  increase in mean AUC0-t: 2.5 fold
[9]; iv, 10 mg/kg
  AUC0-t: 28480 ng·h/mL
  T½ elim.: 606.6 min
  Vd (area): 6.32268 L/kg
[10]
  IC50: > 10 µM
[11]
  half-life: > 60 min
  microsomal CLint: < 23 µL/min/mg
[12]
  time of Cmax in the brain: 5 min
  percentage of the administered dose in the brain: 0.3-0.7%
[12]; 1 mg/kg
  percentage of the administered dose in the brain: 0.3%
  LogBB: −0.879
  brain concentration: 0.191 µg/g
  plasma concentration: 1.443 µg/g
[12]; 5 mg/kg
  percentage of the administered dose in the brain: 0.3%
  LogBB: −0.649
  brain concentration: 1.421 µg/g
  plasma concentration: 6.352 µg/g
[12]; 20 mg/kg
  percentage of the administered dose in the brain: 0.7%
  LogBB: −0.276
  brain concentration: 10.048 µg/g
  plasma concentration: 19.009 µg/g
[12]; 10 mg/kg
  LogBB: −0.311
  brain concentration: 5.269 µg/g
  plasma concentration: 10.790 µg/g
